Measured values: patent US11793983B2, “Sonodynamic therapy using microbubbles and pulsed wave ultrasound methods and systems” (University of Pittsburgh-Of the Commonwealth System of …, priority 2017, dated 2023)

Tested on: Mouse squamous cell carcinoma cells SCC-VII
Test: Cytotoxicity in vitro with ultrasound, alamarBlue cell viability assay
Assay type: cell-based
Conditions: +US, ISAPA=1 W/cm^2, 10% duty cycle, 2 min, 24 hours after treatment
Protocol: Mouse squamous cell carcinoma cells SCC-VII were cultured in RPMI 1640 medium supplemented with 10% fetal bovine serum (FBS), […] and 200 IU/mL penicillin (Gibco, ThermoFisher Scientific, Waltham, Mass.). Cells were harvested and suspended in a concentration of 1×10^6 cells/mL using serum free RPMI-1640 medium. Every 2 mL of cell suspension was transferred to 14 mL Falcon round-bottom polystyrene tubes. Immediately before the US treatment, the suspension was supplemented together with various concentrations of MBPpIX. US (1 MHz, 10% duty cycle) exposure time for each acoustic condition is 2 min. During exposure, the sample tube was gently shaking occasionally (every 10 sec) to improve mixing and to provide uniform exposure. Free PpIX (first dissolved in DMSO; final concentration: 2.9 μM) or PpIX liposome (precursor of MBPpIX, with equivalent PpIX concentration of 2.9 μM) were used for comparison and cells not treated were used as controls (NT). After treatment procedure, 300 μL of the cell suspension was transferred to a 24 well plate prefilled with 2 mL cell culture medium, and the cells were incubated at 37° C. for 24 hours. Cell viability was then measured using alamarBlue cell viability assay. Cell morphology was examined with bright field microscopy (IX81, Olympus, Center Valley, Pa.). […]

Compound: C=CC1=C(C)c2cc3[nH]c(cc4nc(cc5[nH]c(cc1n2)c(C)c5CCC(=O)O)C(CCC(=O)O)=C4C)c(C)c3C=C [PpIX, protoporphyrin IX]
- cell viability: 4±3%
